Drawing on ChEMBL document CHEMBL1144388, “Carbonic anhydrase inhibitors: synthesis and inhibition of cytosolic/tumor-associated carbonic anhydrase isozymes I, II, and IX with sulfonamides incorporating thioureido-sulfanilyl scaffolds” (Bioorg Med Chem Lett, 2005), this text covers Ki for twelve molecules.

Targets include Carbonic anhydrase 9 (Homo sapiens, UniProt Q16790); Carbonic anhydrase 1 (Homo sapiens, UniProt P00915); Carbonic anhydrase 2 (Homo sapiens, UniProt P00918).
The target in assay [1] is Carbonic anhydrases; II & IX (Homo sapiens, UniProt P00918+Q16790).
Description: Ratio against Carbonic anhydrase II to Carbonic anhydrase IX

Carbonic anhydrase 1, sequence (P00915 whole entry): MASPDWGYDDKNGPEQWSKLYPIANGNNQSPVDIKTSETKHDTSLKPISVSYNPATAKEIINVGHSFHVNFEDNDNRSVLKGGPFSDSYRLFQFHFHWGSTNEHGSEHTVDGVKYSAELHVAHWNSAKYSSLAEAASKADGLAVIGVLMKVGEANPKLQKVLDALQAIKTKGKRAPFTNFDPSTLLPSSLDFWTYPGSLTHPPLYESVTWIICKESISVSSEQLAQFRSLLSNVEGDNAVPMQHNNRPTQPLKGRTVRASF
Description for Carbonic anhydrase 1: Inhibitory constant against human Carbonic anhydrase I
Description for Carbonic anhydrase 2: Inhibitory constant against human Carbonic anhydrase II
Description for Carbonic anhydrase 9: Inhibitory constant against human Carbonic anhydrase IX

Take `CN(C)CC/N=C(\S)Nc1ccc(S(=O)(=O)NCc2ccc(S(N)(=O)=O)cc2)cc1`: the Ki came to 5.4 nM at Carbonic anhydrase 9, 210 nM on Carbonic anhydrase 1, 12 nM on Carbonic anhydrase 2 and 2.22 Ratio in assay [1].
On to `NS(=O)(=O)c1ccc(NS(=O)(=O)c2ccc(N/C(S)=N/N3CCOCC3)cc2)cc1`, for which the figures for the Ki at Carbonic anhydrase 1 and on Carbonic anhydrase 2 were 233 nM and 290 nM, respectively.
In the case of `CN1CCN(CC/N=C(\S)Nc2ccc(S(=O)(=O)NCc3ccc(S(N)(=O)=O)cc3)cc2)CC1`, the Ki is 5 nM at Carbonic anhydrase 9, 246 nM at Carbonic anhydrase 1, 10.3 nM on Carbonic anhydrase 2 and 2.06 Ratio in assay [1].
As for `CN1CCN(CC/N=C(\S)Nc2ccc(S(=O)(=O)Nc3ccc(S(N)(=O)=O)cc3)cc2)CC1`, the Ki came to 4.8 nM on Carbonic anhydrase 9, 175 nM at Carbonic anhydrase 1, 7.2 nM at Carbonic anhydrase 2 and 1.5 Ratio in assay [1].
Consider `NS(=O)(=O)c1ccc(CNS(=O)(=O)c2ccc(N/C(S)=N/CCN3CCOCC3)cc2)cc1`, for which the Ki on Carbonic anhydrase 9 stood at 4.8 nM; on Carbonic anhydrase 1, 3.1 nM; on Carbonic anhydrase 2, 220 nM; in assay [1], 45.83 Ratio.
Regarding `NS(=O)(=O)c1ccc(CNS(=O)(=O)c2ccc(NC(=S)NN3CCOCC3)cc2)cc1`, the Ki at Carbonic anhydrase 1 is 268 nM; at Carbonic anhydrase 2 it was 278 nM.
Consider `NS(=O)(=O)c1ccc(CC/N=C(\S)Nc2ccc(S(=O)(=O)NCc3ccc(S(N)(=O)=O)cc3)cc2)cc1`, for which the Ki on Carbonic anhydrase 9 was determined as 4.6 nM; at Carbonic anhydrase 1, 3.7 nM; at Carbonic anhydrase 2, 46 nM; in assay [1], 10 Ratio.
Taken in the same sequence, the figures for `CN(C)CC/N=C(\S)Nc1ccc(S(=O)(=O)NCCc2ccc(S(N)(=O)=O)cc2)cc1` were 6.1 nM, 308 nM, 10.1 nM and 1.65 Ratio.
As for `NS(=O)(=O)c1ccc(CNS(=O)(=O)c2ccc(NC(=S)NCc3ccccn3)cc2)cc1`, the Ki was 355 nM at Carbonic anhydrase 1 and 290 nM at Carbonic anhydrase 2.
Turning to `NS(=O)(=O)c1ccc(NS(=O)(=O)c2ccc(N/C(S)=N/CCN3CCOCC3)cc2)cc1`, the Ki stood at 5.6 nM at Carbonic anhydrase 9, 9.5 nM at Carbonic anhydrase 1, 180 nM on Carbonic anhydrase 2 and 32.14 Ratio in assay [1].
Taken in the same sequence, the figures for `CN(C)CC/N=C(\S)Nc1ccc(S(=O)(=O)Nc2ccc(S(N)(=O)=O)cc2)cc1` were 6.7 nM, 105 nM, 8.1 nM and 1.2 Ratio.
Turning to `NS(=O)(=O)c1ccc(CNS(=O)(=O)c2ccc(NC(=S)NCCc3ccccc3)cc2)cc1`, the values for the Ki at Carbonic anhydrase 1 and on Carbonic anhydrase 2 were 8.6 nM and 640 nM, respectively.
